Assay results as given in article PMC10525516, “Novel NADPH Oxidase-2 Inhibitors as Potential Anti-Inflammatory and Neuroprotective Agents” (Antioxidants, 2023).
Structures can show the parent of a compound that is named as a salt. One block for each compound: values may come before it.

Experiments:
[1] = biological target: T1, Nox2 (Homo sapiens, UniProt P04839); test: CBA probe assay of H2O2 production by PMA-activated dHL60 cells; format: cell-based; settings: for Nox2 inhibitory potency (SAR statement): replacement of the indole moiety, data not shown; for IC50: PMA (1 µM)-activated dHL60 cells, 30 min preincubation with inhibitor, read-out: IC50, inhibition of H2O2 production, CBA Assay; for Nox2 inhibitory activity: tested at concentrations of up to 50 µM
T1 construct: endogenous in cells
T1 sequence (P04839 2-570 limits assumed): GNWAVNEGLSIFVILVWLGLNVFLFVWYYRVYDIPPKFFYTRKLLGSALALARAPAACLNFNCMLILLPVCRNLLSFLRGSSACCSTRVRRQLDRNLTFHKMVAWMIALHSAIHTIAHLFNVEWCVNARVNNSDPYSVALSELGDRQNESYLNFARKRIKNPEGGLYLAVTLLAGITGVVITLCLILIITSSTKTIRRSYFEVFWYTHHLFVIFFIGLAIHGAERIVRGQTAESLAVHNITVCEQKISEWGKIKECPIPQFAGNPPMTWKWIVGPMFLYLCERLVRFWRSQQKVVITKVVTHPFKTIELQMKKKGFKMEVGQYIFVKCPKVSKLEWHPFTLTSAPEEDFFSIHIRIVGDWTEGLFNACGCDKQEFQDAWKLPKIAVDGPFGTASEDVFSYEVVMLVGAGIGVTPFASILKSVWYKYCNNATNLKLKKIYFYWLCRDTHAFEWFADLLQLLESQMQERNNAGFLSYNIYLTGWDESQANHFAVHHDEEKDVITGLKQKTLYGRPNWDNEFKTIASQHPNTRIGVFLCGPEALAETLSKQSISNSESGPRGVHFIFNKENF
T1 sequence (P13498 2-195 partner limits assumed): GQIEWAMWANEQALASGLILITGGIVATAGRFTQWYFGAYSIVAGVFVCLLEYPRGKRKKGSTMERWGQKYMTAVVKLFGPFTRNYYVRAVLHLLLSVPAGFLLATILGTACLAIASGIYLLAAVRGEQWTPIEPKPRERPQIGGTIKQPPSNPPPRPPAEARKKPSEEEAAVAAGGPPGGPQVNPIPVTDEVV
Procedure: (§1) Human promyelocytic leukemia HL60 cells (Sigma-Aldrich) were grown in RPMI 1640 medium (Gibco, 11875-093, Billings, MT, USA) supplemented with 10% FBS (Omega Scientific (Tarzana, CA, USA)), 100 units/mL penicillin, and 100 µg/mL streptomycin, and were incubated at 37 °C and 5% carbon dioxide (CO2). For differentiation to neutrophil-like cells, HL60 cells were pelleted and resuspended in fresh media containing 1 µM of all trans-retinoic acid and incubated for four to five days. Nox2 activation was achieved by treating differentiated HL60 (dHL60) cells with 1 µM PMA [24]. Human leukemia monocytic cells, THP-1, were grown in RPMI 1640 medium + GlutaMAX^TM (Gibco, 61870-036) and supplemented with 10% FBS, 10 mM HEPES, and 1 mM sodium pyruvate and incubated at 37 °C in 5% CO2 environment. To induce differentiation into macrophages, THP-1 cells were treated with PMA (100 ng/mL) for 48 h. To test the efficacy of Nox2 inhibitors, treatment was performed with or without the inhibitor, along with PMA [35].
(§2) Plate reader-based analyses of the production of O2^•− and H2O2 by PMA-activated dHL60 cells were performed according to a published protocol with minor modifications. Briefly, for the treatment of dHL60 cells with different concentrations of the compounds, 0.5 mL deep-well 96-well plates were used to dispense and store aliquots of their 10 mM DMSO solutions. Using a Multidrop™ PicoIT dispenser (Thermo Scientific), different volumes of the solutions of candidate Nox inhibitors (10 or 50 mM in DMSO) were injected into the bottom of 0.5 mL V-bottom 96-well plates; then, they were sealed with aluminum foil (VWR, Batavia, IL, USA) using a semiautomatic thermal sealer (BT LabSystems, St. Louis, MO, USA) and stored at −20 °C to reduce freeze-thawing the solutions. The plates with inhibitors were allowed to come to room temperature before the addition of the cell suspensions. dHL60 cells were pelleted and resuspended in HBSS (Invitrogen, Waltham, MA, USA) supplemented with 25 mM HEPES (pH 7.4) and 100 µM DTPA to a cell density of 2 × 10^5 cells/mL. dHL60 cells were added to the V-bottom plates at a volume of 210 µL/well. Next, cells were incubated with inhibitors for 30 min at 37 °C in a CO2-free incubator under ambient oxygen and then transferred to black, clear-bottom 96-well plates (200 µL/well) after incubation. Freshly prepared PMA plus probe solutions in HBSS (5× concentrated, 50 µL/well) included PMA (5 µM) with CBA (500 µM) or with Amplex Red (250 µM) plus HRP (0.5 U/mL) for H2O2 detection, or with HE (50 µM) plus DNA (0.5 mg/mL) for O2^•− detection. Once probes + PMA were added, plates were sealed with sealing film and immediately placed in the pre-warmed plate readers (37 °C). Fluorescence intensities were monitored kinetically from the bottom of the plates every 1.3 min for a period of 2 h using Beckman Coulter (Brea, CA, USA) DTX880 and BMG Labtech (Ortenberg, Germany) FLUOstar Omega plate readers. DMSO alone and DPI (10 µM) were used as negative and positive controls, respectively. […] The IC50 values were determined using at least five independent measurements, each consisting of technical quadruplicates per concentration.

[2] = tested on: dHL60 cells; test: Cell Titer Glo 2.0 cytotoxicity (ATP) assay in PMA-stimulated dHL60 cells; format: cell-based, human; settings: for IC50: Homo sapiens, Cell Titer Glo 2.0, PMA-stimulated dHL60 cells, 2.5 h with inhibitor, unit not printed in Table 3, taken from text, read-out: IC50, Viability Assay
Procedure: The cytotoxicity of the inhibitors was tested by measuring the amount of ATP in the wells containing PMA-stimulated dHL60 cells and the candidate inhibitors. Cells were prepared as described for the plate reader-based measurements for H2O2, except that the cells were maintained with the inhibitors in a CO2-free incubator at 37 °C for 2.5 h to mirror the conditions during the fluorescence-based monitoring of H2O2 described above. After incubation, cells (100 µL/well) were transferred to white 96-well plates (Greiner, Kremsmünster, Austria), and the total cellular ATP amount was determined using the Cell Titer Glo 2.0 (Promega) cytotoxicity assay (100 µL/well) by measuring the luminescence intensity using a Beckman Coulter DTX880 plate reader.

[3] = biological target: T1, Nox2; test: Amplex Red/HRP assay of H2O2 production by PMA-activated dHL60 cells; format: cell-based; settings: for IC50: PMA (1 µM)-activated dHL60 cells, 30 min preincubation, read-out: IC50, inhibition of H2O2 production, Amplex Red Assay
Procedure: as §1, §2

[4] = tested on: THP-1 cells; test: qRT-PCR mRNA expression of Nox2 subunits and inflammatory mediators in PMA-treated THP-1 cells; format: cell-based, human; settings: 3 µM, 48 h with PMA 100 ng/mL
Procedure: as §1
mRNA expression analysis was performed as previously described. Briefly, THP-1 cells were treated with PMA (100 ng/mL) with or without the Nox2 inhibitor TG15-132 (3.0 µM) for 48 h. RNA extraction was done using the Quick-RNA miniprep kit (cat. no. R1055, Zymo Research, Irvine, CA, USA) and followed by cDNA synthesis using the qScript cDNA superMix kit (cat. no. 84035, Quantabio, Beverly, MA, USA). Quantitative real-time PCR was performed using specific primers designed to amplify target genes (Table 2). Data obtained were analyzed and converted into fold changes in expression with respect to vehicle-treated cells.

[5] = Short-term (seven day) in vivo toxicity in mice; design: species or system C57BL/6 mice; settings: 20 mg/kg, seven days, Figure 9B
Procedure: All animal experiments were performed according to protocols and guidelines approved by the Emory University Animal Care and Use Committee. The in vivo toxicity of TG15-132 was assessed using C57BL/6 mice (cat. no. 027, Charles River Laboratories, Wilmington, MA, USA). Animals were injected daily (i.p.) with saline, vehicle (DMSO 10%, PEG400 30%, water 60%), or 20 mg/kg of TG15-132 in vehicle for seven days, with body weight recorded each day. At the end of treatment, organs were harvested to study organ weight loss, and blood was collected from each mouse via cardiac puncture, and serum was isolated. Serum was analyzed for kidney function using blood urea nitrogen and creatinine, liver function using alanine amino transferase, and tissue damage using lactate dehydrogenase.

[6] = In vivo pharmacokinetics / brain penetration, species not specified (rodent models); settings: brain; species and dose not stated; data not shown; read-out: brain-to-plasma ratio
From the text: Rapid metabolism and the inability to cross the BBB represent major obstacles in the application of bioactive agents in neurodegenerative diseases. Based on the premise that Nox2 plays a major role in oxidative damage and exacerbates neurodegenerative diseases, we envision applications of brain-permeable Nox2 inhibitors in mechanistic studies in vivo, and, long-term, in the development of novel therapeutic strategies. Therefore, we performed in vivo pharmacokinetics studies to determine the time profile of plasma concentration and accumulation of TG15-132 in the brain tissue of Sprague Dawley rats and C57BL6 mice.

[7] = tested on: Nox2; design: method as in PMID 22726689; settings: library of >200,000 compounds; cited from earlier work

Structure (SMILES): CN(C)CCCn1c(SCCc2ccccn2)nc2ccc(Cl)cc2c1=O [TG15-124]
Nox2 inhibitory potency (SAR statement) [1]: significant loss in Nox2 inhibitory potency

Structure (SMILES): c1ccc2c(c1)[I+]c1ccccc1-2 [DPI, Diphenyleneiodonium chloride, reference compound]
cytotoxic effects ([2]; 10 µM, Cell Titer Glo 2.0): did not show any cytotoxic effects
inhibitory activity (positive control) ([1]; 10 µM): consistently showed inhibitory activity

Nox2 inhibitory potency (SAR statement) [1]: eliminated potency
Structure (SMILES): CN(C)CCCSc1nc2ccc(F)cc2c(=O)n1CCCN(C)C [TG17-55]

IC50 [3]: 9.2 ± 0.4 µM
IC50 [1]: 7 ± 2.8 µM
Structure (SMILES): CC(C)N1CCN(CCCn2c(SCCc3c[nH]c4ccccc34)nc3ccc(F)cc3c2=O)CC1 [TG17-57]
IC50 [2]: 20.7 ± 5 µM

Structure (SMILES): COc1cc(C(C)=O)cc(-c2cc(C(C)=O)cc(OC)c2O)c1O [diapocynin, reference compound]
Nox2 inhibitory activity [1]: did not show Nox2 inhibitory activity

Structure (SMILES): CN(C)CCCn1c(SCCc2ccccn2)nc2ccc(F)cc2c1=O [TG15-131]
Nox2 inhibitory potency (SAR statement) [1]: significant loss in Nox2 inhibitory potency

IC50 [3]: 7.8 ± 4 µM
IC50 [1]: 5.3 ± 0.6 µM
Structure (SMILES): CCN1CCN(CCCn2c(SCCc3c[nH]c4ccccc34)nc3ccc(F)cc3c2=O)CC1 [TG17-56]
IC50 [2]: 16.7 ± 2.5 µM

Structure (SMILES): CC(C)n1cc(-c2ccc3c(c2)N(C)CC3)c2c(NS(=O)(=O)c3ccn(C)n3)ccnc21 [GSK 2795039, reference compound]
expression of TNF compared with PMA-treated cells (Figure 7B) [4]: increased
mRNA expression vs PMA-treated cells, additional experiment (Figure 7B) [4]: did not reduce the expression of Nox2 components and inflammatory mediators

IC50 [3]: 67.8 ± 2.6 µM
fold less potency than TG17-57 in the Amplex Red assay ([3]; relative to TG17-57): about 7 fold
IC50 [1]: 23.6 ± 18.1 µM
fold less potency than TG17-57 in the CBA assay ([1]; relative to TG17-57): about 3 fold
Structure (SMILES): CC(C)N1CCN(C(=O)CCCn2c(SCCc3c[nH]c4ccccc34)nc3ccc(F)cc3c2=O)CC1 [TG15-293]
IC50 [2]: 38.3 ± 7.5 µM

Nox2 inhibitory activity [1]: did not show Nox2 inhibitory activity
Structure (SMILES): COc1cc(C(C)=O)ccc1O [apocynin, reference compound]

Structure (SMILES): CN(C)CCCn1c(SCCc2c[nH]c3ccccc23)nc2ccc(F)cc2c1=O [TG15-132•HCl]
liver or kidney function, tissue damage (serum BUN, CREAT, ALT, LDH) [5]: did not lead to a negative effect

IC50 [3]: 4.9 ± 2.3 µM
Kp [6]: > 23
IC50 [1]: 3.1 ± 1.4 µM
Structure (SMILES): CN(C)CCCn1c(SCCc2c[nH]c3ccccc23)nc2ccc(Cl)cc2c1=O [TG15-139]
IC50 [2]: 14.1 ± 1.7 µM
cell viability at concentrations showing Nox2 inhibitory potency ([2]; dHL60 cells, Figure 3D,E): no decrease in cell viability

Structure (SMILES): O=c1c2ccccc2[se]n1-c1ccccc1 [ebselen]
Nox2 inhibition in cell-free HTS [7]: modest Nox2 inhibitors
